According to patent US20240100146A1 (priority 2022, published 2024):

Test system: MHV1
Parameters: species or system A/J mice
Conditions: mouse, in vivo

## CC(=O)N[C@H]1[C@H]([C@H](O)[C@H](O)CO)OC(C(=O)O)=C[C@@H]1N=C(N)N [zanamivir]
  % protection (survival) against lethal MHV1 challenge: 0%
